Reference: patent US20060116316A1, “Heterocyclic inhibitors of IRES-mediated translation and methods of use thereof” (priority 2004, published 2006)
Where a SMILES comes first, the peptide text is derived from it.

Test system: HCV IRES
Experiment: HCV IRES reporter FACS assay (GFP expression ratio, intein-expressed cyclic peptides)
Format: cell-based, Hepatitis C virus
Conditions: ratio at least 1.20 = significant activity
Excerpt: [The source words this procedure for another variant and says it was used here with some conditions changed.] Cells producing libraries of cyclic 3-mers and 4-mers (i.e., libraries of cyclic peptides that contain 3 or 4 amino acid residues) were constructed using methods identical to those of Kinsella et al (J Biol. Chem. 2002 277:37512-8), except different oligonucleotides were used for library construction. Clones from this library were screened in an assay shown in FIG. 2 to identify IRES-inhibitory compounds.
In summary, separate cyclic 3-mer and cyclic 4-mer libraries were constructed such that each peptide of the library contained a fixed Ser, Thr or Cys residue (at position 1) and the remaining residues were randomized. For library construction, degenerate oligonucleotides of sequence 5′-[…](AGC/ACC/TGC)(NNK)2 or 3 TGCATCAGCGGCGACAG-3′ were annealed to the primer 5′-[…]-3′ and extended using the Expand PCR kit (Roche Molecular Biochemicals). The double-stranded DNA insert was digested and inserted into the BclI/DrdI sites of DnaBO-e-BFP (ACUC). The plasmid libraries were electroporated into ElectroMAX DH 10B competent E. coli (Invitrogen) for amplification on LB+amp agar medium. […] Expression of the intein is detected by detecting BFP expression. Expression of the intein (and the cyclic peptide produced by the intein) is suppressible by addition of exogenous doxycycline. The amino acid sequence of the junctions of the intein scaffold used in making the 3-mer library is Val-His-Asn-X3 or 4-Cys-Ile-Ser, where X3 or 4 are three or four contiguous amino acids.
Infectious retroviral particles were produced by transfection of 15 µg of each library (as described in Swift et al, (1999). Current Protocols in Immunology Vol. 10.17C, pp. 1-17, Freeman, N.Y.) into approximately 5×10^6 Phoenix-A packaging cells. Each resulting library of retroviral particles was then used to infect 5×10^6 BJAB-S3A11 reporter cells and a FACS based selection was carried out to isolate cells with reduced HCV-IRES reporter output.
In detail, referring to FIG. 2, the cells used in the assay contained an IRES-dependent reporter system. […]. Also present in the cells is a control reporter system for assaying the activity of 5′ cap-dependent translation (the mechanism by which most cellular proteins are normally translated). The control reporter system contains a CMV promoter that drives the transcription of an RNA containing 5′ cap-dependent UTR, operably linked to an RNA encoding RFP (red fluorescent protein). Translation of RFP is dependent on the activity of the 5′ cap-dependent UTR.
Cells containing both the cyclic compound library and the reporter systems described above were first screened for survival upon exposure to diptheria toxin, and then screened by FACS to identify cells that had reduced GFP expression, as compared to RFP expression. Cells were expanded and replica-plated and grown in the presence or absence of dox (100 ng/ml) for four days. Plates were stimulated with IL-4 and GFP expression (relative to RFP) was monitored by flow cytometry. The IRES-inhibitory activity of a peptide is evaluated by calculating the ratio of the geometric mean of GFP expression of peptide positive cells (“peptide pos+” cells i.e., cells not contacted with dox) to the geometric mean of GFP expression of peptide negative cells (“peptide pos−” cells i.e., cells contacted with dox).
Cyclic peptides assigned higher scores have a greater IRES-inhibitory activity.
The number shown in parentheses after each of the amino acid sequences is the IRES-inhibitory activity ratio, as discussed above.

[1] = BJAB-S3A11 reporter cells, +/- dox 100 ng/ml four days, library intein junction Val-His-Asn-X1X2X3-Cys-Ile-Ser
[2] = 3-mers from mutant intein scaffold, junction Val-His-Asn-X1X2X3-Trp-Ile-Ser
[3] = 3-mers from mutant intein scaffold, junction Val-His-Tyr-X1X2X3-Cys-Ile-Ser
[4] = 4-mers from mutant intein scaffold, junction Val-His-Asn-X1X2X3X4-Cys-Ser

C[C@@H](O)[C@@H]1NC(=O)[C@H](Cc2c[nH]c3ccccc23)NC(=O)[C@H](CO)NC1=O [cyclo-TSW, cyclo[TSW]] (cyclo(Ser-Trp-Thr))
IRES-inhibitory activity ratio (geometric mean GFP expression, peptide positive cells / peptide negative cells) [1]: 1.25

C[C@@H]1NC(=O)[C@H](CO)NC(=O)[C@H](CCC(N)=O)NC1=O [cyclo-SAQ, cyclo[SAQ]] (cyclo(Ala-Gln-Ser))
IRES-inhibitory activity ratio (geometric mean GFP expression, peptide positive cells / peptide negative cells) [2]: 1.4

CC(C)[C@@H]1NC(=O)[C@H](CC(=O)O)NC(=O)[C@H](CO)NC1=O [cyclo-SDV, cyclo[SDV]] (cyclo(Asp-Val-Ser))
IRES-inhibitory activity ratio (geometric mean GFP expression, peptide positive cells / peptide negative cells) [3]: 1.23

CC(C)[C@@H]1NC(=O)[C@H](Cc2ccccc2)NC(=O)[C@H](CO)NC1=O [cyclo-SFV, cyclo[SFV]]
IRES-inhibitory activity ratio (geometric mean GFP expression, peptide positive cells / peptide negative cells) [1]: 1.33

O=C1N[C@@H](Cc2c[nH]c3ccccc23)C(=O)N[C@@H](Cc2c[nH]c3ccccc23)C(=O)N[C@H]1CS [cyclo-CWW, cyclo[CWW]] (cyclo(Cys-Trp-Trp))
IRES-inhibitory activity ratio (geometric mean GFP expression, peptide positive cells / peptide negative cells) [1]: 1.41

C[C@@H](O)[C@@H]1NC(=O)[C@H](Cc2c[nH]c3ccccc23)NC(=O)[C@H](Cc2ccc(O)cc2)NC1=O [cyclo-TYW, cyclo[TYW]] (cyclo(Thr-Tyr-Trp))
IRES-inhibitory activity ratio (geometric mean GFP expression, peptide positive cells / peptide negative cells) [1]: 2.23

C[C@@H]1NC(=O)[C@H](CO)NC(=O)[C@H](CCCCN)NC1=O [cyclo-SAK, cyclo[SAK]] (cyclo(Ala-Lys-Ser))
IRES-inhibitory activity ratio (geometric mean GFP expression, peptide positive cells / peptide negative cells) [2]: 1.3

C[C@@H](O)[C@@H]1NC(=O)[C@H](Cc2c[nH]c3ccccc23)NC(=O)[C@H](Cc2cnc[nH]2)NC1=O [cyclo-THW, cyclo[THW]] (cyclo(His-Trp-Thr))
IRES-inhibitory activity ratio (geometric mean GFP expression, peptide positive cells / peptide negative cells) [1]: 1.49

NC(=O)C[C@@H]1NC(=O)[C@H](CO)NC(=O)[C@H](Cc2c[nH]c3ccccc23)NC1=O [cyclo-SNW, cyclo[SNW]] (cyclo(Asn-Trp-Ser))
IRES-inhibitory activity ratio (geometric mean GFP expression, peptide positive cells / peptide negative cells) [2]: 2.10

C[C@@H]1NC(=O)[C@H](Cc2ccccc2)NC(=O)[C@H](Cc2c[nH]c3ccccc23)NC(=O)[C@H](CO)NC1=O [cyclo-SWFA, cyclo[SWFA]] (cyclo(ASWF))
IRES-inhibitory activity ratio (geometric mean GFP expression, peptide positive cells / peptide negative cells) [4]: 1.31

CCC(C)[C@@H]1NC(=O)[C@H](C)NC(=O)[C@H](CO)NC1=O (stereo partly drawn) [cyclo-SAI, cyclo[SAI]]
IRES-inhibitory activity ratio (geometric mean GFP expression, peptide positive cells / peptide negative cells) [2]: 1.30

C[C@@H]1NC(=O)[C@H](CS)NC(=O)[C@H](Cc2c[nH]c3ccccc23)NC1=O [cyclo-CAW, cyclo[CAW]] (cyclo(Ala-Trp-Cys))
IRES-inhibitory activity ratio (geometric mean GFP expression, peptide positive cells / peptide negative cells) [1]: 1.37

N=C(N)NCCC[C@@H]1NC(=O)[C@H](CO)NC(=O)[C@H](Cc2c[nH]c3ccccc23)NC1=O [cyclo-SRW, cyclo[SRW]] (cyclo(Arg-Trp-Ser))
IRES-inhibitory activity ratio (geometric mean GFP expression, peptide positive cells / peptide negative cells) [2]: 2.14

CCC(C)[C@@H]1NC(=O)[C@H](CO)NC(=O)[C@H](C(C)C)NC1=O (stereo partly drawn) [cyclo-SIV, cyclo[SIV]]
IRES-inhibitory activity ratio (geometric mean GFP expression, peptide positive cells / peptide negative cells) [1]: 1.4

O=C1CNC(=O)[C@H](CO)NC(=O)[C@H](Cc2c[nH]c3ccccc23)N1 [cyclo-SGW, cyclo[SGW]] (cyclo(Gly-Trp-Ser))
IRES-inhibitory activity ratio (geometric mean GFP expression, peptide positive cells / peptide negative cells) [2]: 1.94

C[C@@H]1NC(=O)[C@H](CO)NC(=O)[C@H](Cc2ccc(O)cc2)NC1=O [cyclo-SAY, cyclo[SAY]] (cyclo(Ala-Tyr-Ser))
IRES-inhibitory activity ratio (geometric mean GFP expression, peptide positive cells / peptide negative cells) [3]: 1.95

C[C@@H]1NC(=O)[C@H]([C@@H](C)O)NC(=O)[C@H](Cc2c[nH]c3ccccc23)NC1=O [cyclo-TAW, cyclo[TAW]] (cyclo(Ala-Trp-Thr))
IRES-inhibitory activity ratio (geometric mean GFP expression, peptide positive cells / peptide negative cells) [2]: 5.09

CC(C)[C@@H]1NC(=O)[C@H](CCC(=O)O)NC(=O)[C@H](CO)NC1=O [cyclo-SEV, cyclo[SEV]] (cyclo(Glu-Val-Ser))
IRES-inhibitory activity ratio (geometric mean GFP expression, peptide positive cells / peptide negative cells) [3]: 1.93

CSCC[C@@H]1NC(=O)[C@H](CO)NC(=O)[C@H](Cc2c[nH]c3ccccc23)NC1=O [cyclo-SMW, cyclo[SMW]] (cyclo(Met-Trp-Ser))
IRES-inhibitory activity ratio (geometric mean GFP expression, peptide positive cells / peptide negative cells) [1]: 1.28

O=C1N[C@@H](Cc2ccc(O)cc2)C(=O)N[C@@H](Cc2c[nH]c3ccccc23)C(=O)N[C@H]1CO [cyclo-SYW, cyclo[SYW]] (cyclo(Ser-Tyr-Trp))
IRES-inhibitory activity ratio (geometric mean GFP expression, peptide positive cells / peptide negative cells) [1]: 1.64

O=C1N[C@@H](Cc2c[nH]c3ccccc23)C(=O)N[C@@H](Cc2ccccc2)C(=O)N[C@H]1CO [cyclo-SWF, cyclo[SWF]] (cyclo(Phe-Ser-Trp))
IRES-inhibitory activity ratio (geometric mean GFP expression, peptide positive cells / peptide negative cells) [1]: 1.33

C[C@@H](O)[C@@H]1NC(=O)[C@H](Cc2c[nH]c3ccccc23)NC(=O)[C@H](CC(N)=O)NC1=O [cyclo-TQW, cyclo[TQW]]
IRES-inhibitory activity ratio (geometric mean GFP expression, peptide positive cells / peptide negative cells) [1]: 1.7

C[C@@H](O)[C@@H]1NC(=O)[C@H](Cc2c[nH]c3ccccc23)NC(=O)[C@H](Cc2ccccc2)NC1=O [cyclo-TFW, cyclo[TFW]] (cyclo(Phe-Trp-Thr))
IRES-inhibitory activity ratio (geometric mean GFP expression, peptide positive cells / peptide negative cells) [1]: 1.75

N=C(N)NCCC[C@@H]1NC(=O)[C@H](Cc2ccccc2)NC(=O)[C@H](Cc2c[nH]c3ccccc23)NC(=O)[C@H](CO)NC1=O [cyclo-SWFR, cyclo[SWFR]] (cyclo(FRSW))
IRES-inhibitory activity ratio (geometric mean GFP expression, peptide positive cells / peptide negative cells) [4]: 1.44

CSCC[C@@H]1NC(=O)[C@H]([C@@H](C)O)NC(=O)[C@H](Cc2ccccc2)NC1=O [cyclo-TMF, cyclo[TMF]] (cyclo(Phe-Thr-Met))
IRES-inhibitory activity ratio (geometric mean GFP expression, peptide positive cells / peptide negative cells) [1]: 1.37

C[C@@H]1NC(=O)[C@H](CO)NC(=O)[C@H](Cc2ccccc2)NC1=O [cyclo-SAF, cyclo[SAF]] (cyclo(Ala-Phe-Ser))
IRES-inhibitory activity ratio (geometric mean GFP expression, peptide positive cells / peptide negative cells) [2]: 1.88

C[C@@H](O)[C@@H]1NC(=O)[C@H](Cc2c[nH]c3ccccc23)NC(=O)[C@H](CS)NC1=O [cyclo-TCW, cyclo[TCW]] (cyclo(Cys-Trp-Thr))
IRES-inhibitory activity ratio (geometric mean GFP expression, peptide positive cells / peptide negative cells) [1]: 1.48

C[C@@H]1NC(=O)[C@H](CO)NC(=O)[C@H]([C@@H](C)O)NC1=O [cyclo-SAT, cyclo[SAT]] (cyclo(Ala-Thr-Ser))
IRES-inhibitory activity ratio (geometric mean GFP expression, peptide positive cells / peptide negative cells) [3]: 1.21

N=C(N)NCCC[C@@H]1NC(=O)[C@H](Cc2c[nH]c3ccccc23)NC(=O)[C@H](Cc2c[nH]c3ccccc23)NC(=O)[C@H](CO)NC1=O [cyclo-SWWR, cyclo[SWWR]] (cyclo(RSWW))
IRES-inhibitory activity ratio (geometric mean GFP expression, peptide positive cells / peptide negative cells) [4]: 2.03

CC(C)[C@@H]1NC(=O)[C@H](CO)NC(=O)[C@H](C(C)C)NC1=O [cyclo-SVV, cyclo[SVV]] (cyclo(Ser-Val-Val))
IRES-inhibitory activity ratio (geometric mean GFP expression, peptide positive cells / peptide negative cells) [1]: 1.64
